Values of other authors, collected in US20240082224A1, “METHODS OF TREATING HEMATOLOGICAL MALIGNANCY USING NANOPARTICLE MTOR INHIBITOR COMBINATION THERAPY” (Abraxis BioScience, LLC, priority 2015, published 2024).

Key:
[1] = target: T1, ABCG2 (Homo sapiens, UniProt Q9UNQ0)
T1 sequence (Q9UNQ0 1-655): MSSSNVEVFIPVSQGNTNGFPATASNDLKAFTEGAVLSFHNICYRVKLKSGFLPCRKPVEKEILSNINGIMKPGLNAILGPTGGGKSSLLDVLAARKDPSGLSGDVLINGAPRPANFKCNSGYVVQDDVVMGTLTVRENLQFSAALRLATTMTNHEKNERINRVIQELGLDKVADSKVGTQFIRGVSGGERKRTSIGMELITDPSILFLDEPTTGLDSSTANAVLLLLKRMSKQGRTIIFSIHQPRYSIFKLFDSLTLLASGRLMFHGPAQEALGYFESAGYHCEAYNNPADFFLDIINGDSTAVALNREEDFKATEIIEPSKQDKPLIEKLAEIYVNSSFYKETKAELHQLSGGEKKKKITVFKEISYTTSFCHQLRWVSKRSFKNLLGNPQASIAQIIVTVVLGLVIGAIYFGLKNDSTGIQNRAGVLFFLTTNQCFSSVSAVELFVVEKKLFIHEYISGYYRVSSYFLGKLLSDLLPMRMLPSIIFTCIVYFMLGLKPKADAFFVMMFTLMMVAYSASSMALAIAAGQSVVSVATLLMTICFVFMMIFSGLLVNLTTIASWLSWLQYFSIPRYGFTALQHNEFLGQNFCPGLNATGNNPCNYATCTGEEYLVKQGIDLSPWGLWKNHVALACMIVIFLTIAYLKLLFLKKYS

[2] = in vivo
[3] = target: ABCB1 (Homo sapiens, UniProt P08183)
Chain of ABCB1 (P08183 whole entry, species assumed): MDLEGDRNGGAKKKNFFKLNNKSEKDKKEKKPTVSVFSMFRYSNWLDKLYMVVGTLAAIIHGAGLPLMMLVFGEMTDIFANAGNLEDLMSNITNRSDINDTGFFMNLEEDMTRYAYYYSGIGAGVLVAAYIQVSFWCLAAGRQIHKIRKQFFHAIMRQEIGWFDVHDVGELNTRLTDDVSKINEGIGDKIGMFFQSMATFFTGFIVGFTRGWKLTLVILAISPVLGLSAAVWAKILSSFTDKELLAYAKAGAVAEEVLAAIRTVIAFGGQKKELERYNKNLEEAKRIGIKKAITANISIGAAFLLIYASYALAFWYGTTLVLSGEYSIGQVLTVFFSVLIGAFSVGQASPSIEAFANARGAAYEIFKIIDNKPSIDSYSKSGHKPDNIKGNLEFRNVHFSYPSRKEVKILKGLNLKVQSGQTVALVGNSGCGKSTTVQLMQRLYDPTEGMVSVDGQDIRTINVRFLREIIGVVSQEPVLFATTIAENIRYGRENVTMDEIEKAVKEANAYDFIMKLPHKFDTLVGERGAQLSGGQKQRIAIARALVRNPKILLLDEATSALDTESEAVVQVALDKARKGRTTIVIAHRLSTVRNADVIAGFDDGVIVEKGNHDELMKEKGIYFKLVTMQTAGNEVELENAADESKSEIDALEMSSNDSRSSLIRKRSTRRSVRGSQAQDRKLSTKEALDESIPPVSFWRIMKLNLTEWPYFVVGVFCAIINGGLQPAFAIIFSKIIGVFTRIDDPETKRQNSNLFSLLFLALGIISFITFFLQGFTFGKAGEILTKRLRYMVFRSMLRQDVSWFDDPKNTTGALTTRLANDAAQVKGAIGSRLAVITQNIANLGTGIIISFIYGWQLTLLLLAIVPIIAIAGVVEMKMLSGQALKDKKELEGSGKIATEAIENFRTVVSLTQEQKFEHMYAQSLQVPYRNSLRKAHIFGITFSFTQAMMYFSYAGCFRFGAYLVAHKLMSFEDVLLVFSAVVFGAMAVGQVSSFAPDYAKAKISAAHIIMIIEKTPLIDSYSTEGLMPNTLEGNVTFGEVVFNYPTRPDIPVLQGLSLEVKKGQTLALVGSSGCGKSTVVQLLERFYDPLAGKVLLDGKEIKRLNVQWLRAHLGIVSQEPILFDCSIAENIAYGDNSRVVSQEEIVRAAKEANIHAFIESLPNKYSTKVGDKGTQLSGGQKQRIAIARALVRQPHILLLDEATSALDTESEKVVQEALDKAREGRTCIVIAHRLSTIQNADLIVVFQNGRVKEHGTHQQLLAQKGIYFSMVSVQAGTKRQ

[4] = test system: CML patients

Row | Structure (SMILES) | affinity for ABCG2 [1] | brain penetration [2] | affinity for ABCB1 [3] | CML patients who respond ([4]; imatinib) | patients progressing to advanced disease ([4]; within 5 years)
1 | COc1ccc(COc2cc3oc(=O)c4cc(C(C)O)ccc4c3cc2OC)cc1 (centres unmarked) [Palomid 529] | lacks affinity | good brain penetration | lacks affinity |  | 
2 | Cc1ccc(NC(=O)c2ccc(CN3CCN(C)CC3)cc2)cc1Nc1nccc(-c2cccnc2)n1 [imatinib] |  |  |  | 80% | under 3%
